Values after ≈ are worked out from the molar mass of the structure shown. Like-named read-outs stand apart in the source and are kept apart here.

Data set [1] deals with green rice leafhopper (Nephotettix cincticeps). In words: Test Example 6: simulated paddy field test, green rice leafhopper. Format: in vivo. Particulars: 100 ppm at 100 liter/10 are, after 48 hours. The protocol: (§1) The wettable powder of each of the present compounds (1), (2), (4) and (5) prepared in Preparation Example 4 was diluted with water so that the concentration of active ingredient was 100 ppm. Soil was placed in a plastic box [5 m×5 m×2 m (deep)] to a level of 50 cm from the bottom, and rice plants about 50 cm high were transplanted at intervals of 50 cm. Water was then placed in the box so that water depth was 5 cm, and 20 killifishes (Oryzias latipes) were liberated therein. Thereafter, the above dilute solution was sprayed on the box at a rate of 100 liter/10 are. The solution fell on the rice plants as well as on the water surface.
(§2) One hour after treatment, 100 female adults of green rice leafhopper (Nephotettix cincticeps) were liberated in the box which was immediately covered with a net.

In data set [2] the test system is killifishes (Oryzias latipes). Put plainly: Test Example 6: simulated paddy field test, killifish. Particulars: 100 ppm at 100 liter/10 are, water depth 5 cm, after 48 hours. The format is in vivo. As for the experimental part:
as §1, §2

Data set [3] is described as follows: Test Example 7: Test for toxicity to fishes (fry carp). Format: in vivo, fry carp (Cyprinus carpio). As to conditions: water, read-out: Toxicity to fishes TLm48. The protocol: (§3) Toxicity to killifish (Oryzias latipes) was tested according to the test method for toxicity to fishes described in Notification B No. 2735 of the Ministry of Agriculture and Forestry (Nov. 25, 1965). Namely, each of the present compounds (1), (4), (5) and (6) was dissolved or suspended in "Tween 80" and diluted successively with dechlorinated tap water. Ten killifish (0.2-0.3 g per fish) were released in a 10-liter glass vessel containing 5 liters of each preparation.
Toxicity to fry carp (Cyprinus carpio) was tested according to the test method for toxicity to fishes described in Notification B No. 2735 of the Ministry of Agriculture and Forestry (Nov. 25, 1965). The comparative test was made in a manner similar to that of Test Example 1.

Data set [4] is described as follows: Test Example 1: Test for toxicity to fishes (killifish). Format: in vivo, killifish (Oryzias latipes). Particulars: water; killifish, 48 hours; read-out: Toxicity to fishes TLm48 (medium tolerance limit, 48 hours). The protocol: as §3
(§4) In order to make it clearer that the present compounds have a low toxicity to fishes as well as a high insecticidal activity, a safety coefficient to fishes was calculated from the test results of toxicity to fishes and insecticidal activity. [formula]
(§5) A detailed explanation will be given as to a method of how to calculate the safety coefficient. In the case of green rice leafhoppers, calculation was based on the concentration of active ingredient in water obtained by applying a test solution containing the active ingredient in an amount corresponding to LC50 (ppm) to a flooded paddy field 5 cm deep at a rate of 100 liter/10 are, provided that all the active ingredient applied entered the water.
(§6) In this case, the coefficient is 333, which means that the present compound (1) has a 333-fold safety.

The test system of data set [5] is killifish (Oryzias latipes). The data set is described as above. The format is in vivo. Particulars: TLm48 killifish (a) / concentration of active ingredient in water (b) at green rice leafhopper LC50. The protocol:
as §3, §4, §5, §6

Data set [6] relates to green rice leafhopper (Nephotettix cincticeps). Put plainly: Test Example 1: Test for insecticidal activity (green rice leafhopper). Format: in vivo. As to conditions: green rice leafhopper R-strain, spray on rice plant, 26° C., 24 hours, 3 replications, read-out: LC50 (median lethal concentration).
Description: The emulsifiable concentrates of the present compounds and reference compound prepared in Preparation Example 1 were each formulated into test solutions having four different concentrations of active ingredient between 500 ppm and 0.5 ppm. Each test solution was sprayed on rice plant in a 180-ml plastic cup which had elapsed one month after sowing, at a rate of 15 cc/2 cups by means of a turn table. After air-drying, the rice plant was covered with a wire-screen cage, and 15 female adults of green rice leafhopper (Nephotettix cincticeps) (a strain resistant to carbamates and organo-phosphates, hereinafter referred to as R-strain) were liberated therein. The plant was placed in an artificial climate chamber kept at 26° C. After 24 hours, the dead and alive were examined. The median lethal concentration [LC50 (ppm)] was calculated from the mortality determined by 3 replications.
as §5, §6

Data set [7] relates to yellow fever mosquito (Aedes aegypti). The format is in vivo. Particulars: 50 mg granule in 100 cc water, full grown larvae, 24 hours. The protocol:
Fifty milligrams of the granule of the present compound (1) obtained in Preparation Example 6 was placed in a 100-cc beaker containing 100 cc of distilled water, and 30 full grown larvae of yellow fever mosquito (Aedes aegypti) were liberated therein. After 24 hours, 100% of the larvae could be killed.

Data set [8] deals with carmine mites (Tetranychus cinnabarinus). Put plainly: Test Example 4: spray test against carmine mites on rice plants. The format is in vivo. Particulars: 500 ppm spray, all stages, after 10 days. As for the experimental part: The emulsifiable concentrate of each of the present compounds (1) and (6) prepared in Preparation Example 1 was diluted with water so that the concentration of the active ingredient was 500 ppm. The dilute liquor was thoroughly sprayed on rice plants (grown in a 1/10,000 are Wagner's pot) on which carmine mites (Tetranychus cinnabarinus) in all stages were made parasitic.

Data set [9] has as its system green rice leafhopper (Nephotettix cincticeps). In words: Test Example 5: Residual effect test (green rice leafhopper). Format: in vivo. The protocol: The emulsifiable concentrate of the present compound (1) prepared in Preparation Example 1 was diluted with water so that the concentration of active ingredient was 400 ppm. Thereafter, 20 cc of the dilute solution was sprayed on rice plants grown in a 1/10,000 are Wagner's pot. The rice plants were air-dried and covered with a wire-screen cage, and 15 female adults of green rice leafhopper (Nephotettix cincticeps) were liberated therein. After 24 hours, the dead and alive were examined to obtain mortality. In order to examine the residual effect, the pot was then left as it was for 7 days, and the test insects were liberated in the same manner as above. After 24 hours, the mortality was examined. The experiment was carried out in a greenhouse and the number of replications was three.

As for `CC1(C)[C@H](C(=O)OC(C#N)c2cccc(Oc3ccc(Br)cc3)c2)[C@H]1C(Br)C(Cl)(Cl)Br` (relative stereo) [(2), m-(p-Bromophenoxy)-α-cyanobenzyl dl-trans-2,2-dimethyl-3-(1,2-dibromo-2,2-dichloroethyl)cyclopropanecarboxylate], in data set [1], the “alive green rice leafhoppers found” value is reported as “no alive green rice leafhoppers were found”. Also, in data set [2], the killifish survival entry was “all the killifishes were alive”. In addition, the LC50 at 48 h in [3] was over 1 µg/mL.
Take `CC1(C)[C@H](C(=O)OC(C#N)c2cccc(Oc3ccc(Br)cc3)c2)[C@@H]1C(Br)C(Cl)(Cl)Br` (relative stereo) [(3), m-(p-Bromophenoxy)-α-cyanobenzyl dl-cis-2,2-dimethyl-3-(1,2-dibromo-2,2-dichloroethyl)cyclopropanecarboxylate]: the LC50 at 48 h in data set [3] is over 1 µg/mL.
For the compound `CC1(C)C(C(=O)OC(C#N)c2cccc(Oc3ccc(Br)cc3)c2)C1C(Br)C(Cl)(Cl)Br` (stereo not drawn) [(1), m-(p-Bromophenoxy)-α-cyanobenzyl 2,2-dimethyl-3-(1,2-dibromo-2,2-dichloroethyl)cyclopropanecarboxylate], the LC50 at 48 h in [4] was 4 µg/mL (≈ 6.11 µM); in data set [3], over 1 µg/mL. Also, the “Safety coefficient to fishes (a)/(b)” value in data set [5] is 333. Further, in [6], the LC50 came out at 5.8 µg/mL (≈ 8.85 µM). For the same compound, the larvae killed in [7] was determined as 100%. Further, the “spreading of the damage to rice plants by carmine mites” value in data set [8] is reported as “the spreading of the damage could be prevented”. For the same compound, the mortality (usually the share of the test organisms that died) at 400 ppm in data set [9] (400 ppm spray, 24 hours after liberation, greenhouse, read-out: Mortality, effect immediately after treatment) came to 100%; in data set [9] (400 ppm spray, insects liberated 7 days after treatment, 24 hours, greenhouse, read-out: Mortality, effect 7 days after treatment), 100%. Further, the “alive green rice leafhoppers found” value in data set [1] is reported as “no alive green rice leafhoppers were found”. For the same compound, in data set [2], the killifish survival entry is “all the killifishes were alive”.
On to `CC1(C)C(C(=O)OC(C#N)c2cccc(Oc3ccc(Br)cc3)c2)C1C(Br)C(Br)(Br)Br` (stereo not drawn) [(4), m-(p-Bromophenoxy)-α-cyanobenzyl 2,2-dimethyl-3-(1,2,2,2-tetrabromoethyl)cyclopropanecarboxylate], for which the LC50 at 48 h in data set [4] is over 10 µg/mL. Also, in data set [5], the “Safety coefficient to fishes (a)/(b)” value was over 500. In addition, the LC50 in data set [6] came to 10 µg/mL (≈ 13.4 µM). Further, the “alive green rice leafhoppers found” value in data set [1] was “no alive green rice leafhoppers were found”. Moreover, the killifish survival result in data set [2] is “all the killifishes were alive”.
As for `CC1(C)[C@H](C(=O)OC(C#N)c2cccc(Oc3ccc(Br)cc3)c2)[C@H]1C(Br)C(Br)(Br)Br` (stereo partly drawn) [(5), m-(p-Bromophenoxy)-α-cyanobenzyl d-trans-2,2-dimethyl-3-(1,2,2,2-tetrabromoethyl)cyclopropanecarboxylate], the LC50 at 48 h in [4] is over 5 µg/mL. In addition, the “Safety coefficient to fishes (a)/(b)” value in data set [5] is recorded as over 1667. Moreover, the LC50 in data set [6] turned out to be 1.7 µg/mL (≈ 2.29 µM). The “alive green rice leafhoppers found” value in data set [1] is “no alive green rice leafhoppers were found”. Besides, the killifish survival result in [2] is on record as “all the killifishes were alive”.
Turning to `CC1(C)[C@H](C(=O)OC(C#N)c2cccc(Oc3ccc(Br)cc3)c2)[C@@H]1C(Br)C(Br)(Br)Br` (stereo partly drawn) [(6), m-(p-Bromophenoxy)-α-cyanobenzyl d-cis-2,2-dimethyl-3-(1,2,2,2-tetrabromoethyl)cyclopropanecarboxylate], the LC50 at 48 h in [4] is over 5 µg/mL. In data set [5], the “Safety coefficient to fishes (a)/(b)” value is reported as over 263. Further, in [6], the LC50 is 9.5 µg/mL (≈ 12.8 µM). Moreover, the “spreading of the damage to rice plants by carmine mites” value in data set [8] is “the spreading of the damage could be prevented”.
Turning to `CC1(C)C(C(=O)OC(C#N)c2cccc(Oc3ccccc3)c2)C1C(Br)C(Cl)(Cl)Br` (centres unmarked) [(A), reference compound], the LC50 at 48 h was 0.5 µg/mL (≈ 0.868 µM) in [4] and 0.00395 µg/mL (≈ 0.00686 µM) in data set [3]. In [5], the “Safety coefficient to fishes (a)/(b)” value amounted to 50. Also, the LC50 in data set [6] was found to be 5 µg/mL (≈ 8.68 µM).
In the case of `CC1(C)C(C(=O)OC(C#N)c2cccc(Oc3ccc(F)cc3)c2)C1C(Br)C(Cl)(Cl)Br` (centres unmarked) [(B), reference compound], the LC50 at 48 h stood at 0.1 µg/mL (≈ 0.168 µM) in [4] and 0.0028 µg/mL (≈ 0.00471 µM) in data set [3]. Moreover, the “Safety coefficient to fishes (a)/(b)” value in data set [5] was 8. In [6], the LC50 worked out at 6.5 µg/mL (≈ 10.9 µM).
Take `CNC(=O)Oc1ccc(C)c(C)c1` [MPMC, 3,4-Xylyl Nmethylcarbamate-, reference compound]: the mortality at 400 ppm stood at 100% in [9] (24 h, read-out: Mortality, effect immediately after treatment) and 0% in [9] (read-out: Mortality, effect 7 days after treatment).

The values are drawn from patent US4303672A, “Cyclopropanecarboxylate insecticides and/or acaricides exhibiting low toxicity to mammals and fish” (priority 1979, dated 1981).
